Results from patent publication US10178867B2, “Treating microbe contamination in water with THP salts and polymeric biopenetrants” (priority 2004, dated 2019).

Key:
[1] = tested on: General Heterotrophic Bacteria; assay: Quantitative suspension test (planktonic bacteria) in WHO water; format: cell-based; settings: 50 ppm ai THPS
Description: Quantitative Suspension Test (Planktonic Bacteria) in WHO Water

[2] = tested on: GHB; assay: Quantitative suspension test in de inking water, GHB; format: cell-based, general heterotrophic bacteria; settings: 75 ppm ai THPS, 3 hour contact
Description: (§1) Quantitative Suspension Test in De Inking Water

[3] = tested on: SRB; assay: Quantitative suspension test in de inking water, SRB; format: cell-based, sulphate reducing bacteria; settings: 75 ppm ai THPS, 3 hour contact
Description: as §1

[4] = tested on: GHB; assay: Biofilm (sessile) test, freshwater (WHO); format: cell-based, general heterotrophic bacteria; settings: after 75 ppm ai THPS dosed for 3 hours
Description: Biofilm (Sessile) Tests: Freshwater (WHO)

[5] = tested on: GHB; assay: Biofilm test, seawater (SMOW), GHB; format: cell-based, general heterotrophic bacteria; settings: after 75 ppm ai THPS dosed for 3 hours
Description: (§2) Biofilm Tests: Seawater (SMOW)

[6] = tested on: SRB; assay: Biofilm test, seawater (SMOW), SRB; format: cell-based, sulphate reducing bacteria; settings: after 75 ppm ai THPS dosed for 3 hours
Description: as §2

What does the source list for “tetrakis(hydroxymethyl)phosphonium sulphate [Unformulated THPS]”?
Log Reduction of General Heterotrophic Bacteria ([1]; 1 hour contact): 1; Log Reduction of General Heterotrophic Bacteria ([1]; 3 hour contact): 5.8; Log reduction values, GHB [2]: 3.8; Log reduction values, SRB [3]: 3; Viable bacteria, GHB [4]: 1 × 10^5; Viable bacteria, GHB [5]: 1 × 10^2; Viable bacteria, SRB [6]: 1 × 10^4
